Source: patent US9340536B2, “Multicomponent crystals comprising dasatinib and selected co-crystal formers” (BASF SE, priority 2012, dated 2016)
≈ marks a conversion by molar mass, not a printed value.

Key:
[1] = Aqueous solubility determination (suspension in pure water, HPLC); details: 25 °C
Description: Solubility Determinations:
Solubility determinations were carried out in pure water at 25±2° C. Suspensions with about 10 mg co-crystal in 0.5 mL water were prepared an equilibrated for two hours before the solution phase was filtered off and tested by HPLC.
HPLC was carried out on an Agilent 1100 HPLC chromatograph equipped with a UV-vis detection unit. […] The column type used was a Waters XTerra MS C18, 250×4.6 mm, 5 μm (FK-CC14). The method as referenced above is an isocratic method using an aqueous ammonium acetate/acetic acid and methanol with a ratio of 55/45. The applied flow rate was 1.0 mL per minute, the injection volume was 20 microliter and the detection wavelength was 321 nm.

[2] = estimated by Roy et al., Cryst. Growth & Design 2012 (12), 2122-2126; cited from earlier work

solubility at 2 h ([1]; pure water, thermodynamic from solid) | solubility [1] | Structure (SMILES) | ratio of the equilibrium solubility of anhydrous Dasatinib free base to Dasatinib monohydrate free base [2]
0.36 µg/mL |  | Cc1nc(Nc2ncc(C(=O)Nc3c(C)cccc3Cl)s2)cc(N2CCN(CCO)CC2)n1 [Dasatinib free base monohydrate, N-(2-chloro-6-methylphenyl)-2-[[6-[4-(2-hydroxyethyl)-1-piperazinyl]-2-methyl-4-pyrimidinyl]amino]-5-thiazolecarboxamide] | 
 | ~0.9 µg/mL (≈ 1.84 µM) | Cc1nc(Nc2ncc(C(=O)Nc3c(C)cccc3Cl)s2)cc(N2CCN(CCO)CC2)n1 [Dasatinib free base anhydrous form, N-(2-chloro-6-methylphenyl)-2-[[6-[4-(2-hydroxyethyl)-1-piperazinyl]-2-methyl-4-pyrimidinyl]amino]-5-thiazolecarboxamide] | about 2.4
